Target: T1, hMC2 receptor (crude hMC2R membranes from CRE-bla-CHO-K1 cells stably expressing hMC2 receptor and hMRAP accessory protein) (Homo sapiens, UniProt Q01718)
T1 construct: crude membrane fractions
Test: hMC2 membrane binding assay ([125I]ACTH (1-39) Tyr23, SPA)
Settings: displacement of 0.2 nM [125I]ACTH (1-39) Tyr23 from hMC2R membranes, 1.5 hours at room temperature; read-out: MC2R binding potency
Experimental: Crude membrane fractions are prepared from CRE-bla-CHO-K1 cells stably expressing hMC2 receptor and hMRAP accessory protein (Thermo Fisher). The cells are grown to 85-100% confluence on standard tissue culture dishes in GlutaMax DMEM growth media (Gibco) with following additives: 10% dialyzed FBS (Gemini), 0.1 mM NEAA (Gibco), 25 mM HEPES (Gibco), 5 μg/mL blasticidin (Goldbio), 100 μg/mL zeocin (Invitrogen), 600 μg/mL hygromycin (Goldbio). To prepare membranes, cells are scraped and collected in 1× Dulbecco's phosphate buffered saline (Corning) and then pelleted at 1000 RPM's. The cell pellet is reconstituted in membrane preparation buffer (20 mM HEPES, 6 mM MgCl2 and 1 mM EGTA, protease inhibitor tablets (Pierce) adjusted to pH 7.4), homogenized using a dounce homogenizer, and the resulting membrane fraction is pelleted by centrifugation at 12,000 RPM's. The membrane pellet is resuspended in membrane preparation buffer, snap freezed and stored at −80° C. for later use.
Binding Assay for hMC2 Antagonists Protocol:
The hMC2 membrane binding assay utilizes the following components: radiolabel [^125I]ACTH (1-39) Tyr23 (PerkinElmer), wheatgerm agglutinin coated PVT SPA beads (PerkinElmer), crude hMC2R membranes, and compounds. Briefly hMC2R membranes are incubated with SPA beads in binding assay buffer (50 mM HEPES, 5 mM MgCl2, 1 mM CaCl2), 0.20% BSA, protease inhibitor tablets (Pierce) adjusted to pH7.4) prior to assay initiation. […] Assay plates are read using a Top Count NXT and Ki values for compounds are determined using a GraphPad Prism 6 non-linear regression analysis.

T1 sequence (Q01718 whole entry): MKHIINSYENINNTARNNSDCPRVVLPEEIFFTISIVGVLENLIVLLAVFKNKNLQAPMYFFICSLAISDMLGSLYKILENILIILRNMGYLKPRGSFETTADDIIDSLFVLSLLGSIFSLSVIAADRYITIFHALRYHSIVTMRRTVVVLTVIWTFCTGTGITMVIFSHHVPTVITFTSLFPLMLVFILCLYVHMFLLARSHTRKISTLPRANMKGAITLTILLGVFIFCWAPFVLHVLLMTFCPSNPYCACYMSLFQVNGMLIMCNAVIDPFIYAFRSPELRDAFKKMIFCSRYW
T1 sequence (Q8TCY5 whole entry partner): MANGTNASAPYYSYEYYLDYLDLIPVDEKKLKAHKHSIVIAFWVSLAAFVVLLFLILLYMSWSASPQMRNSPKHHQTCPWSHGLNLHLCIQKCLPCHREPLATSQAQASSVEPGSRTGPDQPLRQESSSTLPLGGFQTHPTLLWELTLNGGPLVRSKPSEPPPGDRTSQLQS

| Ki [nM] | Compound |
| --- | --- |
| < 10 | 1-{1-[2-cyano-4-(trifluoromethyl)phenyl]-4-[6-(1-methyl-1H-pyrrol-2-yl)pyridin-3-yl]piperidin-4-yl}-3-[(3R)-1-methylpyrrolidin-3-yl]urea [Compound 2-48] |
| < 10 | Cn1cccc1-c1ccc(C2(C(=O)N[C@@H]3C[C@@H]3N)CCN(c3ccc(C(F)(F)F)cc3C#N)CC2)cn1 (racemic) [Compound 1-258, rac-N-[(1R,2S)-2-aminocyclopropyl]-1-[2-cyano-4-(trifluoromethyl)phenyl]-4-[6-(1-methyl-1H-pyrrol-2-yl)pyridin-3-yl]piperidine-4-carboxamide] |
| 10 to 100 | Cn1cccc1-c1ccc(C2(C(=O)N[C@@H]3C[C@H]3N)CCN(c3ccc(C(F)(F)F)cc3C#N)CC2)cn1 (racemic) [Compound 1-259, rac-N-[(1R,2R)-2-aminocyclopropyl]-1-[2-cyano-4-(trifluoromethyl)phenyl]-4-[6-(1-methyl-1H-pyrrol-2-yl)pyridin-3-yl]piperidine-4-carboxamide] |
| < 10 | CO[C@@H]1CN(C)C[C@@H]1NC(=O)C1(c2ccc(-c3cccn3C)nc2)CCN(c2ccc(C(F)(F)F)cc2C#N)CC1 (racemic) [Compound 1-267, rac-1-[2-cyano-4-(trifluoromethyl)phenyl]-N-[(3S,4R)-4-methoxy-1-methylpyrrolidin-3-yl]-4-[6-(1-methyl-1H-pyrrol-2-yl)pyridin-3-yl]piperidine-4-carboxamide] |
| < 10 | CO[C@@H]1CN(C)C[C@H]1NC(=O)C1(c2ccc(-c3cccn3C)nc2)CCN(c2ccc(C(F)(F)F)cc2C#N)CC1 (racemic) [Compound 1-268, rac-1-[2-cyano-4-(trifluoromethyl)phenyl]-N-[(3R,4R)-4-methoxy-1-methylpyrrolidin-3-yl]-4-[6-(1-methyl-1H-pyrrol-2-yl)pyridin-3-yl]piperidine-4-carboxamide] |
| < 10 | CCOc1ncccc1-c1ccc(C2(C(=O)NC3CN(C)CC3O)CCN(c3ccc(C(F)(F)F)cc3C#N)CC2)cn1 (single isomer, unassigned) [Compound 1-41, 1-[2-cyano-4-(trifluoromethyl)phenyl]-4-{2′-ethoxy-[2,3′-bipyridin]-5-yl}-N-[(3S,4S)*-4-hydroxy-1-methylpyrrolidin-3-yl]piperidine-4-carboxamide] |
| < 10 | CCOc1ncccc1-c1ccc(C2(C(=O)NC3CN(C)CC3O)CCN(c3ccc(C(F)(F)F)cc3C#N)CC2)cn1 (single isomer, unassigned) [Compound 1-46, 1-[2-cyano-4-(trifluoromethyl)phenyl]-4-{2′-ethoxy-[2,3′-bipyridin]-5-yl}-N-[(3R,4R)*-4-hydroxy-1-methylpyrrolidin-3-yl]piperidine-4-carboxamide] |
| < 10 | CCOc1ncccc1-c1ccc(C2(C(=O)N[C@@H]3CCN(C)C3)CCN(c3ccc(C(F)(F)F)cc3C#N)CC2)cc1 [Compound 1-1, 1-[2-cyano-4-(trifluoromethyl)phenyl]-4-[4-(2-ethoxypyridin-3-yl)phenyl]-N-[(3R)-1-methylpyrrolidin-3-yl]piperidine-4-carboxamide] |
| < 10 | CCOc1ncccc1-c1ccc(C2(C(=O)N[C@@H]3CCNC3)CCN(c3ccc(C(F)(F)F)cc3C#N)CC2)cc1 [Compound 1-2, 1-[2-cyano-4-(trifluoromethyl)phenyl]-4-[4-(2-ethoxypyridin-3-yl)phenyl]-N-[(3R)-pyrrolidin-3-yl]piperidine-4-carboxamide] |
| 10 to 100 | CCOc1ncccc1-c1ccc(C2(C(=O)NCCN)CCN(c3ccc(C(F)(F)F)cc3C#N)CC2)cc1 [Compound 1-3, N-(2-aminoethyl)-1-[2-cyano-4-(trifluoromethyl)phenyl]-4-[4-(2-ethoxypyridin-3-yl)phenyl]piperidine-4-carboxamide] |
| 10 to 100 | CCOc1ncccc1-c1ccc(C2(C(=O)NC[C@@H](C)N)CCN(c3ccc(C(F)(F)F)cc3C#N)CC2)cc1 [Compound 1-4, N-[(2R)-2-aminopropyl]-1-[2-cyano-4-(trifluoromethyl)phenyl]-4-[4-(2-ethoxypyridin-3-yl)phenyl]piperidine-4-carboxamide] |
| 10 to 100 | CCOc1ncccc1-c1ccc(C2(C(=O)NCCCN)CCN(c3ccc(C(F)(F)F)cc3C#N)CC2)cc1 [Compound 1-5, N-(3-aminopropyl)-1-[2-cyano-4-(trifluoromethyl)phenyl]-4-[4-(2-ethoxypyridin-3-yl)phenyl]piperidine-4-carboxamide] |
| 10 to 100 | CCOc1ncccc1-c1ccc(C2(C(=O)NC[C@H](C)N)CCN(c3ccc(C(F)(F)F)cc3C#N)CC2)cc1 [Compound 1-6, N-[(2S)-2-aminopropyl]-1-[2-cyano-4-(trifluoromethyl)phenyl]-4-[4-(2-ethoxypyridin-3-yl)phenyl]piperidine-4-carboxamide] |
| < 10 | CCOc1ncccc1-c1ccc(C2(C(=O)NCCNC)CCN(c3ccc(C(F)(F)F)cc3C#N)CC2)cc1 [Compound 1-7, 1-[2-cyano-4-(trifluoromethyl)phenyl]-4-[4-(2-ethoxypyridin-3-yl)phenyl]-N-[2-(methylamino)ethyl]piperidine-4-carboxamide] |
| < 10 | CCOc1ncccc1-c1ccc(C2(C(=O)NCCN(C)C)CCN(c3ccc(C(F)(F)F)cc3C#N)CC2)cc1 [Compound 1-8, 1-[2-cyano-4-(trifluoromethyl)phenyl]-N-[2-(dimethylamino)ethyl]-4-[4-(2-ethoxypyridin-3-yl)phenyl]piperidine-4-carboxamide] |
| < 10 | CCOc1ncccc1-c1ccc(C2(C(=O)N[C@@H]3CCN(C)C3)CCN(c3ccc(C(F)(F)F)cc3C#N)CC2)cn1 [Compound 1-9, 1-[2-cyano-4-(trifluoromethyl)phenyl]-4-{2′-ethoxy-[2,3′-bipyridin]-5-yl}-N-[(3R)-1-methylpyrrolidin-3-yl]piperidine-4-carboxamide] |
| < 10 | CCOc1ncccc1-c1ccc(C2(C(=O)N[C@@H]3CCNC3)CCN(c3ccc(C(F)(F)F)cc3C#N)CC2)cn1 [Compound 1-10, 1-[2-cyano-4-(trifluoromethyl)phenyl]-4-{2′-ethoxy-[2,3′-bipyridin]-5-yl}-N-[(3R)-pyrrolidin-3-yl]piperidine-4-carboxamide] |
| < 10 | CCOc1ncccc1-c1ccc(C2(C(=O)N[C@H]3CCN(C)C3)CCN(c3ccc(C(F)(F)F)cc3C#N)CC2)cn1 [Compound 1-11, 1-[2-cyano-4-(trifluoromethyl)phenyl]-4-{2′-ethoxy-[2,3′-bipyridin]-5-yl}-N-[(3S)-1-methylpyrrolidin-3-yl]piperidine-4-carboxamide] |

| Compound | Ki [nM] |
| --- | --- |
| CN1[C@@H]2CC[C@H]1[C@@H](NC(=O)C1(c3ccc(-c4cccn4C)nc3)CCN(c3ccc(C(F)(F)F)cc3C#N)CC1)C2 (racemic) [Compound 1-251, rac-1-[2-cyano-4-(trifluoromethyl)phenyl]-4-[6-(1-methyl-1H-pyrrol-2-yl)pyridin-3-yl]-N-[(1S,2S,4R)-7-methyl-7-azabicyclo[2.2.1]heptan-2-yl]piperidine-4-carboxamide] | 10 to 100 |
| COc1ccccc1-c1ccc(C2(C(=O)N[C@H]3C[C@H]4CC[C@@H]3N4C)CCN(c3ccc(C(F)(F)F)cc3C#N)CC2)cn1 (racemic) [Compound 1-252, rac-1-[2-cyano-4-(trifluoromethyl)phenyl]-4-[6-(2-methoxyphenyl)pyridin-3-yl]-N-[(1S,2S,4R)-7-methyl-7-azabicyclo[2.2.1]heptan-2-yl]piperidine-4-carboxamide] | 10 to 100 |

From patent publication US12492181B2, “Gem-disubstituted piperidine melanocortin subtype-2 receptor (MC2R) antagonists and uses thereof” (Crinetics Pharmaceuticals, Inc., priority 2019, dated 2025)
